Results from PMC9083330, “An Efficient Evaluation System Accelerates α-Helical Antimicrobial Peptide Discovery and Its Application to Global Human Genome Mining” (Frontiers in Microbiology, 2022).
In brackets after ≈: the same amount, converted by molar mass.

Assays:
[1] = system: Shigella dysenteriae (CMCC(B)51105); assay: MIC, broth microdilution; format: cell-based; conditions: read-out: MIC, 9. S. dysenteriae (CMCC(B)51105)
[2] = system: mouse skin wound infected with E. coli (CMCC44103); assay: Mouse full-thickness skin wound infection and healing; format: in vivo, BALB/c mice
Experimental: (§1) Briefly, adult female BALB/c mice (18–22 g) were obtained from the Laboratory Animal Center of Shenyang Pharmaceutical University and performed in compliance with the guidelines of the Institutional Animal Care and Use Committee of Shenyang Pharmaceutical University. Each mouse was operated on an 8-mm in diameter round-shape wound under surgery conditions with an intraperitoneal injection of ketamine (90 mg/kg) and xylazine (10 mg/kg). The mice were randomly divided into 10 groups, including one normal group, three model groups, three treatment groups, and three positive groups (n = 10 in each group), then the wounds were infected with 40 μl (1 × 10^8 CFU/mL) of E. coli (CMCC44103) or drug-resistant E. coli (SYPB-3820) or S. aureus (CMCC26003), respectively, except for the normal group. Forty-eight hours later, the wounds of three model groups were treated with a sterile 0.85% saline solution. […] All the wounds were treated twice 1 day and observed every 24 h for 14 days. On days 1, 3, 5, 7, and 10, 100 mg of treated skin tissue was removed and homogenized in 0.9 ml of sterile 0.85% saline solution, then the samples were diluted and plated onto Luria-Bertani (LB) medium. After incubation at 37°C for 20 h, the CFUs were counted to represent the bacterial number in the wounds.

[3] = system: mouse skin wound infected with S. aureus (CMCC26003); assay: as above; format: in vivo, BALB/c mice
Experimental: as §1

[4] = system: mouse skin wound infected with drug-resistant E. coli (SYPB-3820); assay: as above; format: in vivo, BALB/c mice
Experimental: as §1

[5] = system: Staphylococcus aureus (CMCC26003); assay: MIC, broth microdilution; conditions: CMCC26003, read-out: MIC, 1. S. aureus (CMCC26003)
[6] = system: Escherichia coli (CMCC44103); assay: MIC, broth microdilution; conditions: CMCC44103, read-out: MIC, 5. E. coli (CMCC44103)
[7] = system: Klebsiella pneumoniae (CMCC46117); assay: MIC, broth microdilution; conditions: CMCC46117, read-out: MIC, 6. K. pneumoniae (CMCC46117)
[8] = system: Escherichia coli (SYPB-3820) (multiple-resistant strain); assay: MIC, broth microdilution; conditions: read-out: MIC, 7. E. coli (SYPB-3820) (multiple-resistant strain)
[9] = system: Acinetobacter baumannii (ACCC11038); assay: MIC, broth microdilution; conditions: read-out: MIC, 8. A. baumannii (ACCC11038)
[10] = system: multiple-resistant Staphylococcus aureus (MRSA186); assay: MIC, broth microdilution; conditions: read-out: MIC, 2. multiple-resistant S. aureus (MRSA186)
[11] = system: genomic DNA of E. coli (CMCC44103); assay: Peptide and DNA binding assay (gel retardation); parameters: species or system Escherichia coli; conditions: 0.5–8 × MIC (1–16 μg/ml), 37°C, 30 min, approx. 400 ng DNA
Experimental: (§2) The gel retardation experiment was conducted according to the method described by [Kim et al. (2018)] for exploring the influence of AMPs on the bacterial genome. The bacterial genomic DNAs were extracted by using a Vazyme FastPure® Bacteria DNA Isolation Mini Kit (Nanjing Vazyme Biotech Co., Ltd., Nanjing, China). […] DNA treated with Penetratin (reported as cell-penetrating peptide) ([de Mello et al., 2019]) and DNA untreated with AMP were served as positive and negative control, respectively. The extent of DNA migration was measured by agarose gel electrophoresis using a gel imaging system (Beijing Sage Creation Science, Beijing, China).

[12] = system: genomic DNA of E. coli (SYPB-3820); assay: Peptide and DNA binding assay (gel retardation); parameters: species or system Escherichia coli; conditions: 0.5–8 × MIC (1–16 μg/ml), 37°C, 30 min, approx. 400 ng DNA
Experimental: as §2

[13] = system: genomic DNA of S. aureus (CMCC26003); assay: Peptide and DNA binding assay (gel retardation); parameters: species or system Staphylococcus aureus; conditions: 0.5–8 × MIC (1–16 μg/ml), 37°C, 30 min, approx. 400 ng DNA
Experimental: as §2

## C[C@H]1COc2c(N3CCN(C)CC3)c(F)cc3c(=O)c(C(=O)O)cn1c23 [Levofloxacin]
[1]
  MIC: 0.06 µg/mL (≈ 0.166 µM)
[2]; day 10, E. coli (CMCC44103) infected wound, topical 100 μl at 8 × MIC twice a day, mean ± SD
  Skin wound bacterial burden: (3.91 ± 2.87) × 10^3 CFU/g
[2]; day 10 vs initial burden, E. coli (CMCC44103)
  Decrease of bacterial load: six
[2]; day 14, E. coli (CMCC44103) infected wound
  Wound healing (observation): basically completely healed
[3]; day 10, S. aureus (CMCC26003) infected wound, topical 100 μl at 8 × MIC twice a day, mean ± SD
  Skin wound bacterial burden: (5.37 ± 2.89) × 10^3 CFU/g
[3]; day 10 vs initial burden, S. aureus (CMCC26003)
  Reduction of bacterial burden: seven
[3]; day 14, S. aureus (CMCC26003) infected wound
  Wound healing (observation): basically completely healed
[4]; 10 days later, E. coli (SYPB-3820) infected wound, topical 100 μl at 8 × MIC twice a day, mean ± SD
  Skin wound bacterial burden: (2.29 ± 3.78) × 10^4 CFU/g
[4]; day 10 vs initial burden, E. coli (SYPB-3820)
  Reduction of bacterial counts: five
[4]; day 14, E. coli (SYPB-3820) infected wound
  Wound healing (observation): basically completely healed
[5]
  MIC: 0.12 µg/mL (≈ 0.332 µM)
[6]
  MIC: 0.03 µg/mL (≈ 0.083 µM)
[7]
  MIC: 0.03 µg/mL (≈ 0.083 µM)
[8]
  MIC: 8 µg/mL (≈ 22.1 µM)
[9]
  MIC: 0.06 µg/mL (≈ 0.166 µM)

## CN[C@H](CC(C)C)C(=O)N[C@H]1C(=O)N[C@@H](CC(N)=O)C(=O)N[C@H]2C(=O)N[C@H]3C(=O)N[C@H](C(=O)N[C@H](C(=O)O)c4cc(O)cc(O)c4-c4cc3ccc4O)[C@H](O)c3ccc(c(Cl)c3)Oc3cc2cc(c3O[C@@H]2O[C@H](CO)[C@@H](O)[C@H](O)[C@H]2O[C@H]2C[C@](C)(N)[C@H](O)[C@H](C)O2)Oc2ccc(cc2Cl)[C@H]1O [Vancomycin]
[10]
  MIC: 1 µg/mL (≈ 0.69 µM)

## Penetratin
[11]
  Binding to genomic DNA (gel retardation): bound with the bacterial genomic DNA and blocked the migration
[12]
  Binding to genomic DNA (gel retardation): bound with the bacterial genomic DNA and blocked the migration
[13]
  Binding to genomic DNA (gel retardation): bound with the bacterial genomic DNA and blocked the migration
